# Key:
# barnyard grass [1] = experiment: Test Example 5: herbicidal effect by foliage application, plastic box (Table 20, symbol H); assay type: in vivo, barnyard grass (Echinochloa crus-galli)
# Outline: (§1)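 Foliar spray test: emulsion formulation diluted in water to a set application rate, sprayed onto 14-day-old plants raised in diluvial soil at 25° C to 30° C under glass. Both herbicidal effect and crop effect rated visually three weeks later.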
# oval-leafed pondweed = experiment: Test Example 1: herbicidal activity, application before weed generation under submerged conditions (Table 16, symbol C); assay type: in vivo, oval-leafed pondweed (Monochoria vaginalis)
# Outline: (§2)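 Submerged Wagner pots (alluvial soil, 4 cm water) sown with weed seeds and planted with 2.5-leaf rice seedlings; emulsifiable concentrate diluted in water applied to water surface on sowing day. Held in greenhouse at 25-30 °C; injury scored 0-5 by herbicidal rate after three weeks.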
# blackgrass = experiment: Test Example 5: herbicidal effect by foliage application, plastic box (Table 20, symbol J); assay type: in vivo, blackgrass (Alopecurus myosuroides)
# Outline: as §1
# green foxtail = experiment: Test Example 5: herbicidal effect by foliage application, plastic box (Table 20, symbol G); assay type: in vivo, green foxtail (Setaria viridis)
# Outline: as §1
# Italian ryegrass = experiment: Test Example 5: herbicidal effect by foliage application, plastic box (Table 20, symbol K); assay type: in vivo, Italian ryegrass (Lolium multiflorum)
# Outline: as §1
# barnyard grass [2] = experiment: Test Example 3: herbicidal effect by foliage application, Wagner pot (Table 18, symbol H); assay type: in vivo, barnyard grass (Echinochloa crus-galli); settings: 320 g/ha
# Outline: (§3)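 Plants were sown in alluvial soil held under 0.1–0.5 cm standing water and grown 14 days in a greenhouse at 25–30 °C. An emulsifiable formulation, water-diluted to the set dose, was then sprayed onto the foliage, and effects were scored three weeks later using previously defined criteria.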
# redroot pigweed = experiment: Test Example 5: herbicidal effect by foliage application, plastic box (Table 20, symbol N); assay type: in vivo, redroot pigweed (Amaranthus retroflexus)
# Outline: as §1
# lambsquarters = experiment: Test Example 5: herbicidal effect by foliage application, plastic box (Table 20, symbol O); assay type: in vivo, lambsquarters (Chenopodium album)
# Outline: as §1
# velvetleaf = experiment: Test Example 5: herbicidal effect by foliage application, plastic box (Table 20, symbol M); assay type: in vivo, velvetleaf (Abutilon theophrasti)
# Outline: as §1
# chickweed = experiment: Test Example 5: herbicidal effect by foliage application, plastic box (Table 20, symbol P); assay type: in vivo, common chickweed (Stellaria media)
# Outline: as §1
# persian speedwell = experiment: Test Example 5: herbicidal effect by foliage application, plastic box (Table 20, symbol R); assay type: in vivo, Persian speedwell (Veronica persica)
# Outline: as §1
# rice flat sedge = experiment: Test Example 3: herbicidal effect by foliage application, Wagner pot (Table 18, symbol E); assay type: in vivo, rice flat sedge (Cyperus iria); settings: 320 g/ha
# Outline: as §3
# late watergrass = experiment: Test Example 1: herbicidal activity, application before weed generation under submerged conditions (Table 16, symbol A); assay type: in vivo, late watergrass (Echinochloa oryzicola)
# Outline: as §2
# southern crabgrass = experiment: Test Example 5: herbicidal effect by foliage application, plastic box (Table 20, symbol F); assay type: in vivo, southern crabgrass (Digitaria ciliaris)
# Outline: as §1
# wild oat = experiment: Test Example 5: herbicidal effect by foliage application, plastic box (Table 20, symbol I); assay type: in vivo, wild oat (Avena fatua)
# Outline: as §1
# Chinese sprangletop = experiment: Test Example 3: herbicidal effect by foliage application, Wagner pot (Table 18, symbol D); assay type: in vivo, chinese sprangletop (Leptochloa chinensis); settings: 320 g/ha
# Outline: as §3
# Japanese bulrush = experiment: Test Example 1: herbicidal activity, application before weed generation under submerged conditions (Table 16, symbol B); assay type: in vivo, Japanese bulrush (Schoenoplectus juncoides)
# Outline: as §2
# windgrass = experiment: Test Example 5: herbicidal effect by foliage application, plastic box (Table 20, symbol L); assay type: in vivo, windgrass (Apera spica-venti); settings: foliage application, AAH 320 g/ha, three weeks after application
# Outline: as §1
# [3] = amount of applied herbicide 320 g/ha, foliage application after 14-day growth, evaluated three weeks after application
# [4] = amount of applied herbicide 320 g/ha
# [5] = foliage application, AAH 320 g/ha, three weeks after application
smiles,measurement,setting,value
CCCC(=O)Oc1c(C)nn(C)c(=O)c1-c1c(-c2ccc(OC)c(OC)c2)sc2cc(F)c(F)cc12 [5-034],"Herbicidal effect by foliage application, H: barnyard grass",barnyard grass [1]; [3],0 (Herbicidal rate of 5% or less (almost no effect))
same,"Herbicidal effect, C: oval-leafed pondweed",oval-leafed pondweed; [4],0 (Herbicidal rate of 5% or less (almost no effect))
same,"Herbicidal effect by foliage application, J: blackgrass",blackgrass; [3],0 (Herbicidal rate of 5% or less (almost no effect))
same,"Herbicidal effect by foliage application, G: green foxtail",green foxtail; [3],3 (Herbicidal rate of 40% or more and less than 70%)
same,"Herbicidal effect by foliage application, K: Italian ryegrass",Italian ryegrass; [3],0 (Herbicidal rate of 5% or less (almost no effect))
same,herbicidal effect on barnyard grass (H),barnyard grass [2],4 (Herbicidal rate of 70% or more and less than 90%)
same,"Herbicidal effect by foliage application, N: redroot pigweed",redroot pigweed; [3],3 (Herbicidal rate of 40% or more and less than 70%)
same,"Herbicidal effect by foliage application, O: lambsquarters",lambsquarters; [3],4 (Herbicidal rate of 70% or more and less than 90%)
same,"Herbicidal effect by foliage application, M: velvetleaf",velvetleaf; [3],3 (Herbicidal rate of 40% or more and less than 70%)
same,"Herbicidal effect by foliage application, P: chickweed",chickweed; [3],5 (Herbicidal rate of 90% or more (almost completely withered))
same,"Herbicidal effect by foliage application, R: persian speedwell",persian speedwell; [3],4 (Herbicidal rate of 70% or more and less than 90%)
same,herbicidal effect on rice flat sedge (E),rice flat sedge,0 (Herbicidal rate of 5% or less (almost no effect))
same,"Herbicidal effect, A: late watergrass",late watergrass; [4],3 (Herbicidal rate of 40% or more and less than 70%)
same,"Herbicidal effect by foliage application, F: southern crabgrass",southern crabgrass; [3],0 (Herbicidal rate of 5% or less (almost no effect))
same,"Herbicidal effect by foliage application, I: wild oat",wild oat; [3],0 (Herbicidal rate of 5% or less (almost no effect))
same,herbicidal effect on Chinese sprangletop (D),Chinese sprangletop,1 (Herbicidal rate of 5% or more and less than 20%)
same,"Herbicidal effect, B: Japanese bulrush",Japanese bulrush; [4],0 (Herbicidal rate of 5% or less (almost no effect))
COc1cccc(OC)c1-c1sc2ccccc2c1-c1c(O)c(C)nn(C)c1=O [1-158],"H: barnyard grass, herbicidal effect",barnyard grass [1]; [5],0 (Herbicidal rate of 5% or less (almost no effect))
same,Herbicidal effect on C: oval-leafed pondweed (grade 0-5),oval-leafed pondweed; 320 g/ha applied herbicide,0 (Herbicidal rate of 5% or less (almost no effect))
same,"J: blackgrass, herbicidal effect",blackgrass; [5],0 (Herbicidal rate of 5% or less (almost no effect))
same,"G: green foxtail, herbicidal effect",green foxtail; [5],0 (Herbicidal rate of 5% or less (almost no effect))
same,"K: Italian ryegrass, herbicidal effect",Italian ryegrass; [5],0 (Herbicidal rate of 5% or less (almost no effect))
same,"herbicidal effect on H (barnyard grass), rating 0-5",barnyard grass [2],2 (Herbicidal rate of 20% or more and less than 40%)
same,"N: redroot pigweed, herbicidal effect",redroot pigweed; [5],0 (Herbicidal rate of 5% or less (almost no effect))
same,"O: lambsquarters, herbicidal effect",lambsquarters; [5],0 (Herbicidal rate of 5% or less (almost no effect))
same,"M: velvetleaf, herbicidal effect",velvetleaf; [5],0 (Herbicidal rate of 5% or less (almost no effect))
same,"P: chickweed, herbicidal effect",chickweed; [5],5 (Herbicidal rate of 90% or more (almost completely withered))
same,"R: persian speedwell, herbicidal effect",persian speedwell; [5],5 (Herbicidal rate of 90% or more (almost completely withered))
same,"herbicidal effect on E (rice flat sedge), rating 0-5",rice flat sedge,0 (Herbicidal rate of 5% or less (almost no effect))
same,Herbicidal effect on A: late watergrass (grade 0-5),late watergrass; 320 g/ha applied herbicide,0 (Herbicidal rate of 5% or less (almost no effect))
same,"L: windgrass, herbicidal effect",windgrass,0 (Herbicidal rate of 5% or less (almost no effect))
same,"F: southern crabgrass, herbicidal effect",southern crabgrass; [5],0 (Herbicidal rate of 5% or less (almost no effect))
same,"I: wild oat, herbicidal effect",wild oat; [5],0 (Herbicidal rate of 5% or less (almost no effect))
same,"herbicidal effect on D (Chinese sprangletop), rating 0-5",Chinese sprangletop,0 (Herbicidal rate of 5% or less (almost no effect))
same,Herbicidal effect on B: Japanese bulrush (grade 0-5),Japanese bulrush; 320 g/ha applied herbicide,2 (Herbicidal rate of 20% or more and less than 40%)
